Measurements from paper PMC7504721, “Targeting the Initiator Protease of the Classical Pathway of Complement Using Fragment-Based Drug Discovery” (Molecules, 2020).

Molecular target: T1, full-length C1r (Homo sapiens, UniProt P00736)
T1 construct: purchased Complement Technology (CompTech)
T1 sequence (P00736 18-463 limits assumed): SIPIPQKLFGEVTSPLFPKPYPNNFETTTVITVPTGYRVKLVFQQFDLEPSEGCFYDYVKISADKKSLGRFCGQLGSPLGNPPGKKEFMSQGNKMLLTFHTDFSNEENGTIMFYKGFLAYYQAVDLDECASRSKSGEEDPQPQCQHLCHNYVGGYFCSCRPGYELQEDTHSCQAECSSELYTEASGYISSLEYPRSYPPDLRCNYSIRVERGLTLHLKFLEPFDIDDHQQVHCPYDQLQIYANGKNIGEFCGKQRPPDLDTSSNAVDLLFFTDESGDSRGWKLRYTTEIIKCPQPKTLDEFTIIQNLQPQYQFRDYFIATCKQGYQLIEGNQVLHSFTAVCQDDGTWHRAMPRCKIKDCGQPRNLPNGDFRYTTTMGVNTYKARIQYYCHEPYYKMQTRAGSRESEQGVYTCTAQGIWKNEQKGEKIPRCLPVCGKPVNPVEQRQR
T1 sequence (P00736 464-705 limits assumed): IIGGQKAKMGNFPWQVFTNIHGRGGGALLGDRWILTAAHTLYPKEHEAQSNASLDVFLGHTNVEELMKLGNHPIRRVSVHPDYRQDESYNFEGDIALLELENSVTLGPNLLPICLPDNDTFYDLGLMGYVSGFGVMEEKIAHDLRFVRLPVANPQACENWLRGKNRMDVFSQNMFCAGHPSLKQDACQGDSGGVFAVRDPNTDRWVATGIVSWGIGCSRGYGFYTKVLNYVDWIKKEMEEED
Test: SPR dose-dependent binding, steady-state affinity
Conditions: for Kd: 1:1 steady-state binding model, mean ± S.D. from three independent injection series, 25 °C; for Ligand efficiency (LE): LE = ΔG/number of non-hydrogen atoms, ΔG = -RT x ln KD,C1r, using KD values of Fig. 3
Procedure: All SPR experiments were carried out using a Biacore T200 (GE Healthcare, Chicago, IL, USA) at 25 °C. For all experiments, a running buffer (HBS-T) of 20 mM HEPES (pH 7.3), 140 mM NaCl, 0.005% (v/v) Tween-20, 5% DMSO (v/v) was used. For each experiment, DMSO calibration curves ranging from 4% to 5.5% DMSO (v/v) were collected at the beginning, end, and every 50 cycles throughout the duration of the experiment. All experiments were performed using HC1500M sensor chips (Xantec, Duesseldorf, Germany). In total, 10 sensor chips and 16 ligand immobilized surfaces were created over the course of this study (detailed in Table S2). In all cases, C1r proteins were immobilized onto chip surfaces using amine-coupling chemistry with 1-ethyl-3-(3-dimethylaminopropyl)-carbodiimide) (EDC), N-hydroxysuccinimide (NHS), followed by ethanolamine. Briefly, 100 mM of EDC and NHS were mixed and injected to activate the chip surface followed by the C1r protein ligand captured at a defined resonance unit (RU) level, followed by reaction quenching with 100 mM ethanolamine pH 8.5. Flow cell 1 was always used as a reference cell (no ligand), unless otherwise noted. All sensorgrams were reference and blank subtracted and analyzed using T200 Evaluation Software (GE Healthcare, Chicago, IL, USA).
To further evaluate hit compounds from the initial SPR screen, dose-dependent SPR binding assays were carried out. Three replicate flow cells were used containing both low and high immobilization densities of C1r (see Table S2). Hit compounds were tested for dose-dependent binding to full-length C1r using a compound concentration range of 7.8–500 µM. T200 evaluation software was used to calculate steady-state affinities for each compound by fitting sensorgrams from each variable concentration injection dataset using a 1:1 Langmuir model of interaction constrained by a theoretical experimental binding response based on the mol. wt. of each compound and derived as stated above. KD values are reported as the mean ± the standard deviation from at least three independent measurements.

SMILES	Kd	Ligand efficiency (LE)
CN(C)c1cc(N2CCCC(N)C2)ncn1 (centres unmarked) [CMP-1611]	480 µM	0.28
COCc1nc(-c2ccc(OC3CNC3)cc2)no1 [CMP-1696]	670 µM	0.22
N=C(N)c1ccc2cc(OC(=O)c3ccc(N=C(N)N)cc3)ccc2c1 [Futhan, reference compound]	11 µM	–
